The values that follow are results of earlier work, collected in patent publication US20260345654A1, “2,8-DIHYDROXYQUINOLINE GLUCURONIDE DERIVATIVES WITH ENHANCED PROPERTIES FOR USE AS ANTICANCER, ANTIVIRAL, ANTIMICROBIAL, AND OTHER THERAPEUTIC APPLICATIONS” (priority 2023, published 2026).

For data set [1] the following is noted: iodinated drug; cited from earlier work.
Data set [2] deals with A2780, A549 and MDA-MB-231 cells. The following applies: addition of Cu^+2 to the media; cited from earlier work.
The conditions of data set [3]: Japanese population, 1970's; cited from earlier work.
For data set [4], the system named is tumor cells. The conditions noted are these: addition of docosahexaenoic acid (DHA); Ding 2006; cited from earlier work.
In data set [5] the test system is viral attachment to ACE receptor. The conditions noted are these: COVID 19; copper chelation not required; cited from earlier work.
Data set [6] deals with cancer cells. The conditions noted are these: Zhai 2010; Oliveri 2012; cited from earlier work.

With `O=C(O)[C@H]1O[C@@H](Oc2cccc3c(I)ccnc23)[C@H](O)[C@@H](O)[C@@H]1O` [4-iodo, 8-hydroxy beta-D-glucopyranosiduronic acid], the excretion entry in data set [1] was “mainly urinary”.

Consider `Oc1c(I)cc(Cl)c2cccnc12` [CQ, 5-chloro-7-iodo-8-hydroxyquinoline], for which, in data set [2], the “cytotoxicity change with addition of Cu^+2” value is given as “significantly increased the cytotoxicity”. Also, the serious side effect entry in data set [3] is “CQ-associated subacute myelo-optic neuropathy”. For the same compound, the “anticancer activity with omega fatty acids” value in data set [4] was “increase synergistically”. Besides, the antiviral activity mechanism result in data set [5] is on record as “blocking viral attachment to ACE receptor”. In addition, the “effect of copper on anti-cancer activity” value in data set [6] is “enhancer or prerequisite of the anti-cancer activity”.
